Data published in ChEMBL document CHEMBL3751770, “Identification of benzothiophene amides as potent inhibitors of human nicotinamide phosphoribosyltransferase” (Bioorg Med Chem Lett, 2016).
pIC50: −log10 of the molar value.

Key:
[1] = biological target: Nicotinamide phosphoribosyltransferase (Homo sapiens, UniProt P43490); test: Inhibition of human Nampt using NAM as substrate after 15 mins by fluorometric method
MDA-MB-231 = test: Cytotoxicity against human MDA-MB-231 cells after 72 hrs by MTT assay; type: functional, cell-based; details: MDA-MB-231, 72 h
[2] = Cytotoxicity against human HCT116 cells after 72 hrs by MTT assay; type: functional, cell-based; details: HCT-116, 72 h
HepG2 [3] = test: Cytotoxicity against human HepG2 cells after 72 hrs by MTT assay; type: functional, cell-based; details: HepG2, 72 h
HepG2 [4] = test: Induction of apoptosis in human HepG2 cells assessed as late apoptotic cells level at 5 uM after 48 hrs using annexin VFITC/propidium iodide staining by flow cytometry (reference value: 2.85%); type: functional
HepG2 [5] = test: Induction of apoptosis in human HepG2 cells assessed as necrotic cells level at 5 uM after 48 hrs using annexin VFITC/propidium iodide staining by flow cytometry (reference value: 4.09%); type: functional
HepG2 [6] = test: Induction of apoptosis in human HepG2 cells assessed as early apoptotic cells level at 5 uM after 48 hrs using annexin VFITC/propidium iodide staining by flow cytometry (reference value: 2.84%); type: functional

Nicotinamide phosphoribosyltransferase, sequence (P43490 whole entry): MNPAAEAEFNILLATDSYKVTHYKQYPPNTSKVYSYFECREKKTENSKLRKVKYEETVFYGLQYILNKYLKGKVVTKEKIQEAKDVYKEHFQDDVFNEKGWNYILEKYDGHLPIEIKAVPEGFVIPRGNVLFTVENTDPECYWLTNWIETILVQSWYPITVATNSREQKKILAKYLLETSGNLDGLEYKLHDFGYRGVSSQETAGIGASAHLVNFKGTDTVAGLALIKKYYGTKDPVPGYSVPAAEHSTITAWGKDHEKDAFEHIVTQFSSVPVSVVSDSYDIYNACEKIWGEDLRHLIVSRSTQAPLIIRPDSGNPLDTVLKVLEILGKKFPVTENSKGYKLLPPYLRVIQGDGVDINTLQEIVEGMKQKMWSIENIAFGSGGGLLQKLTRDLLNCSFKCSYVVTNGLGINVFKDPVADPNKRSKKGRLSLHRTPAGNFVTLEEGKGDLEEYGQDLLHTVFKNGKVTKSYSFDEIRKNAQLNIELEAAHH

Row | Compound | pIC50 [1] | pIC50 (MDA-MB-231) | pIC50 [2] | pIC50 (HepG2 [3]) | Activity (HepG2 [4]) | Activity (HepG2 [5]) | Activity (HepG2 [6])
1 | COc1ccc(CCNC(=O)c2ccc(C)s2)cc1OC | 6.07 | < 3.51 | < 3.51 | < 3.51 | – | – | –
2 | COc1ccc(CCNC(=O)c2ccc([N+](=O)[O-])s2)cc1OC | < 5.00 | < 3.48 | 4.07 | 4.10 | – | – | –
3 | O=C(NCCCn1ccnc1)c1cc2ccccc2s1 | 5.96 | 4.44 | 4.60 | 5.28 | 24.42% | 6.75% | 1.88%
4 | COc1ccc(CCNC(=O)c2cc3ccccc3s2)cc1OC | – | < 3.53 | 3.55 | 4.09 | – | – | –
5 | COc1ccc(CCNC(=O)CNC(=O)c2ccc(C)s2)cc1OC | 6.02 | < 3.40 | < 3.40 | < 3.40 | – | – | –
6 | Cc1ccc(C(=O)NCCCn2ccnc2)s1 | 6.77 | < 3.49 | < 3.49 | 5.41 | 47.51% | 6.62% | 1.03%

The next lines start with results.

Row | pIC50 [1] | Compound | pIC50 (MDA-MB-231) | pIC50 [2] | pIC50 (HepG2 [3]) | Activity (HepG2 [4]) | Activity (HepG2 [5]) | Activity (HepG2 [6])
7 | < 5.00 | Cc1ccsc1C(=O)NCCCn1ccnc1 | < 3.56 | 3.70 | 3.99 | – | – | –
8 | < 5.00 | O=C(NCCCn1ccnc1)c1ccc([N+](=O)[O-])s1 | < 3.41 | < 3.41 | 4.22 | – | – | –
9 | < 5.00 | O=C(/C=C/c1cccnc1)NCCCn1ccnc1 | < 3.56 | < 3.56 | < 3.56 | – | – | –
10 | < 5.00 | COc1ccc(CCNC(=O)CNC(=O)c2sccc2C)cc1OC | < 3.48 | 3.71 | 4.33 | – | – | –
11 | 5.28 | COc1ccc(CCNC(=O)c2sccc2C)cc1OC | 3.72 | 3.77 | 4.00 | – | – | –
12 | < 5.00 | COc1ccc(CCNC(=O)/C=C/c2cccnc2)cc1OC | < 3.40 | < 3.40 | < 3.40 | – | – | –
13 | 5.85 | COc1ccc(CCNC(=O)c2cc3ccccc3o2)cc1OC | < 3.43 | 3.80 | 3.86 | – | – | –
14 | 6.00 | O=C(NCCCn1ccnc1)c1cc2ccccc2o1 | 5.00 | 4.21 | 4.96 | – | – | –
